According to patent US6723741B2, “Benzimidazoles and benzothiazoles and uses thereof” (Synaptic Pharmaceutical Corporation, priority 1996, dated 2004):
Like-named read-outs stand apart in the source and are kept apart here.

How the values were obtained:
[1] = target: T1, human α2A adrenergic receptor (Homo sapiens, UniProt P08913); experiment: Radioligand binding assay, [3H]rauwolscine competition; parameters: expressed in transfected cells
T1 sequence (P08913 1-465): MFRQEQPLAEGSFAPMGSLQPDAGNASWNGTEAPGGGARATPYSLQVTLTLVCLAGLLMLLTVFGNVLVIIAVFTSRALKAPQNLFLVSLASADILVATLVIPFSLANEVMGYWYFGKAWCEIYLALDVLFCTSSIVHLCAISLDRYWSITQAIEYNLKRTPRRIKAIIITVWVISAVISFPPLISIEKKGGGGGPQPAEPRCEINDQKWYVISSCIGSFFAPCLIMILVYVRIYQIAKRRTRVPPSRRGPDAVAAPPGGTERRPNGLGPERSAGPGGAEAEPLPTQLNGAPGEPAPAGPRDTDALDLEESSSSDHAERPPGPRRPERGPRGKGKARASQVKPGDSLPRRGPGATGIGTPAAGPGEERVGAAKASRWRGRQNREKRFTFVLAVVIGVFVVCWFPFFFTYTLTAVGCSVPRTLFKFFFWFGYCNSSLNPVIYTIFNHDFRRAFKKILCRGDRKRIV

[2] = target: T1, human α2A adrenergic receptor; experiment: Agonist activity: inhibition of forskolin-stimulated cAMP synthesis; details: for I.A (Intrinsic Activity) Alpha-2 A: maximum activity relative to maximum activity induced by norepinephrine, human α2A

| Compound | Ki [1] [nM] | EC50 [2] [nM] | I.A (Intrinsic Activity) Alpha-2 A [2] | Ki ([1]; cloned human α2A, LM(tk-) cell membranes, [3H]rauwolscine, read-out: pKi Alpha-2 A (converted)) [nM] |
| --- | --- | --- | --- | --- |
| Brc1cc(NC2=NCCN2)cc2cc[nH]c12 [Example 2, 7-Bromo-5-(2-imidazolin-2-ylamino)indole] | 0.724 | 0.437 | 0.46 | – |
| c1nc2cc(NC3=NCCN3)ccc2s1 [Example 13, 5-(2-Imidazolin-2-ylamino)benzothiazole] | 3.72 | 12.3 | 0.98 | – |
| c1nc2ccc(NC3=NCCN3)cc2s1 [Example 14, 6-(2-Imidazolin-2-ylamino)benzothiazole] | – | – | 0.51 | – |
| c1nc2ccc(NC3=NCCS3)cc2s1 [Example 15, 6-(2-Thiazolin-2-ylamino)benzothiazole] | – | 3090 | 0.58 | 115 |
